For one series, the system named is Bacteria. Kind of series: Inhibition of bacterial CDP-ME kinase assessed as ATP depletion up to 57 uM measured by bioluminescent kinase Glo assay. Particulars: dose microM <=57. In general terms: Kinase-Glo measures the ATP left after a reaction by luminescence.
The subject of another series is HEK293. Kind of series: Cytotoxicity against human HEK293 cells measured after 48 hrs by Cell Titer Glo assay. In kind it is toxicity, cell-based. Particulars: hek293, 48 h.

The source made the active and inactive calls. No rule for the calls is given here.

From ChEMBL document CHEMBL5052821, “Galactokinase inhibitors for the treatment and prevention of associated diseases and disorders” (2019) come the findings set out here.

As to `CC1(C)CC(=O)C2=C(C1)NC(Nc1nc3ccccc3o1)=NC21CCCC1`, in the series on Bacteria, the inhibition entry is “inactive”. Also, in the series with HEK293, the Activity result is reported as “Non-Toxic”.

`O=C1CCCC2=C1C1(CCCC1)N=C(Nc1nc3cc4ccccc4cc3o1)N2`: the inhibition result in the series on Bacteria was “inactive”. In the series with HEK293, the Activity entry is given as “Non-Toxic”.

Consider `O=C1CCCC2=C1C1(CCCC1)N=C(Nc1nc3ccccc3o1)N2`, for which, in the series with Bacteria, the inhibition entry is “inactive”. The Activity result in the series on HEK293 was “Non-Toxic”.

Regarding `O=C1CCC2=C1C1(CCCC1)N=C(Nc1nc3ccccc3o1)N2`, the inhibition result with Bacteria is “inactive”. Further, the Activity result in the series on HEK293 is “Non-Toxic”.

`O=C1CCCC2=C1C1(CCCC1)N=C(Nc1nc3cc(Cl)ccc3o1)N2`: in the series with Bacteria, the inhibition entry is “inactive”. Moreover, in the series on HEK293, the Activity result is recorded as “Non-Toxic”.

Turning to `O=C1CC(c2ccccc2)CC2=C1C1(CCCCC1)N=C(Nc1nc3ccccc3o1)N2` (centres undefined), the inhibition result with Bacteria is “inactive”. The Activity entry with HEK293 is listed as “Non-Toxic”.

For `Cc1ccc2oc(NC3=NC4(CCCC4)C4=C(CCCC4=O)N3)nc2c1`, the inhibition result with Bacteria was “inactive”. Also, in the series on HEK293, the Activity entry is “Non-Toxic”.
